This passage reports MIC results from DBAASP.

The MIC is the lowest concentration found to suppress growth.

Some test systems named below: Staphylococcus simulans; Micrococcus luteus; Escherichia coli D21; Escherichia coli L-; Listeria ivanovii LMA 94; Escherichia coli K-12; Staphylococcus aureus.
Common to all, as to test: ≥ marks a high value that may be exact or a test limit, other limits are often not marked, values filed in µg/mL are converted to µM
Assay [1] concerns Staphylococcus epidermidis LT1324.
Assay [2] concerns Staphylococcus aureus II ATCC 6538P.
Assay [3] deals with Escherichia coli ATCC 25922.
In assay [4] the test system is Pseudomonas aeruginosa ATCC 27853.
Assay [5] deals with Acinetobacter baumannii ATCC 19606.
For assay [6], the system named is Staphylococcus aureus USA 300.
Assay [7] has as its system Lactococcus lactis subsp. cremoris I116.
Assay [8] has as its system Staphylococcus aureus CIP 677.
Assay [9] deals with Klebsiella pneumoniae CIP 8291.
Assay [10] relates to Staphylococcus aureus ATCC 6538.
Assay [11] relates to Cutibacterium acnes ATCC 33257.
For assay [12], the system named is Cutibacterium acnes ATCC 31766.
Assay [13] has as its system Cutibacterium acnes ATCC 15725.
The subject of assay [14] is Escherichia coli ATCC 8739.
For assay [15], the system named is Enterococcus faecalis NCTC 12697.
The subject of assay [16] is Cutibacterium acnes ATCC 18380.
For assay [17], the system named is Klebsiella pneumoniae ATCC BAA-1705.
For assay [18], the system named is Cutibacterium acnes ATCC 29903.
Assay [19] deals with Cutibacterium acnes ATCC 50247.
The subject of assay [20] is Escherichia coli ATCC BAA-2340.
Assay [21] deals with Escherichia coli ATCC 25726.
The subject of assay [22] is Cutibacterium acnes ATCC 32548.
The subject of assay [23] is Candida albicans ATCC 10231.
In assay [24] the test system is Staphylococcus aureus ATCC 25923.
The test system of assay [25] is Cutibacterium acnes ATCC 11828.
Assay [26] deals with Staphylococcus aureus NCTC 12493.
In assay [27] the test system is Klebsiella pneumoniae ATCC 43816.
For assay [28], the system named is Candida albicans ATCC 90028.
For assay [29], the system named is Pseudomonas aeruginosa ATCC 9027.
Assay [30] relates to Pseudomonas aeruginosa B004 V2S2B.

Values after ≈ are worked out from the molar mass of the structure shown. A value given as a limit tells only on which side of the number the result lay.

Turning to `CC(C)C[C@H](NC(=O)[C@H](CC(C)C)NC(=O)[C@H](CC(C)C)NC(=O)[C@H](CC(C)C)NC(=O)[C@H](CC(C)C)NC(=O)[C@H](CC(C)C)NC(=O)[C@H](CC(C)C)NC(=O)[C@H](CC(C)C)NC(=O)[C@H](CC(C)C)NC(=O)[C@H](CCCCN)NC(=O)[C@H](CCCCN)NC(=O)[C@@H](N)CCCCN)C(=O)N[C@@H](CCCCN)C(=O)N[C@@H](CCCCN)C(=O)N[C@@H](CCCCN)C(N)=O` [KKKLLLLLLLLLKKK], the minimal inhibitory concentration (MIC) in assay [1] was no less than 32 µM; against Staphylococcus simulans, no less than 32 µM; in assay [2], no less than 50 µM; against Micrococcus luteus, 16 µM (≈ 28.9 µg/mL); in assay [3] it was 50 µM (≈ 90.2 µg/mL); in the assay on Escherichia coli D21, no less than 50 µM. In addition, the figures for the minimum inhibitory concentration (MIC) in [4] and in assay [5] were greater than 50 µM and 50 µM (≈ 90.2 µg/mL), respectively.

For `CC[C@H](C)[C@H](NC(=O)[C@H](CCCCN)NC(=O)CNC(=O)[C@H](CC(C)C)NC(=O)[C@@H](NC(=O)[C@H](C)NC(=O)[C@H](CCCCN)NC(=O)CNC(=O)[C@H](C)NC(=O)CNC(=O)[C@H](CCCCN)NC(=O)[C@@H](NC(=O)[C@H](CCCCN)NC(=O)[C@@H](NC(=O)[C@H](Cc1c[nH]c2ccccc12)NC(=O)[C@H](CC(C)C)NC(=O)[C@H](CCC(=O)O)NC(=O)[C@H](CCCCN)NC(=O)[C@H](CC(C)C)NC(=O)[C@@H](N)CC(C)C)[C@@H](C)O)[C@@H](C)CC)C(C)C)C(=O)N[C@@H](CCCCN)C(=O)NCC(=O)N[C@@H](CC(C)C)C(=O)N[C@@H](CC(C)C)C(=O)O` [LLKELWTKIKGAGKAVLGKIKGLL], the minimum inhibitory concentration (MIC) against Escherichia coli L- was no less than 64 µM; in assay [6], no less than 85 µM; with Listeria ivanovii LMA 94, 4 µM (≈ 10.3 µg/mL); in assay [7], 2 µM (≈ 5.16 µg/mL); in the assay with Escherichia coli K-12, 25 µM (≈ 64.5 µg/mL); in assay [8], no less than 32 µM. In addition, the MIC in assay [9] is no less than 32 µM.

In the case of `CC[C@H](C)[C@H](NC(=O)[C@@H](NC(=O)CN)C(C)C)C(=O)N[C@H](C(=O)N[C@@H](CC(=O)O)C(=O)N[C@H](C(=O)N[C@@H](CC(C)C)C(=O)N[C@@H](CCCCN)C(=O)NCC(=O)N[C@@H](C)C(=O)N[C@@H](C)C(=O)N[C@@H](CCCCN)C(=O)N[C@H](C(=O)N[C@H](C(=O)N[C@@H](C)C(=O)N[C@@H](C)C(=O)N[C@@H](CCC(=O)O)C(=O)N[C@@H](CC(C)C)C(=O)N[C@@H](CC(C)C)C(=O)N[C@@H](CCCN=C(N)N)C(=O)N[C@@H](CCCCN)C(=O)N[C@@H](C)C(=O)N[C@@H](Cc1cnc[nH]1)C(=O)N[C@H]1CSSC[C@@H](C(=O)O)NC(=O)[C@H](CO)NC(=O)[C@H](CC(N)=O)NC(=O)[C@H]([C@@H](C)O)NC(=O)[C@H](CC(C)C)NC(=O)[C@H](CCCCN)NC1=O)C(C)C)[C@@H](C)O)[C@@H](C)O)[C@@H](C)CC` [GVIIDTLKGAAKTVAAELLRKAHCKLTNSC], the MIC was 32 µM (≈ 100 µg/mL) in assay [10]; 6 µM (≈ 18.7 µg/mL) in [11]; 6 µM (≈ 18.7 µg/mL) in assay [12]; 25 µM (≈ 78.1 µg/mL) in [13]; 16 µM (≈ 50 µg/mL) in assay [14]; no less than 512 µM in [15]. In addition, the MIC was 12.5 µM (≈ 39 µg/mL) in [16]; no less than 512 µM in assay [17]; 25 µM (≈ 78.1 µg/mL) in assay [18]; 6 µM (≈ 18.7 µg/mL) in assay [19]; no less than 32 µM in assay [20]; no less than 32 µM in assay [21]. For the same compound, the MIC is 25 µM (≈ 78.1 µg/mL) in assay [22]; greater than 512 µM in [23]; 64 µM (≈ 200 µg/mL) in assay [24]; greater than 512 µM in the assay with Staphylococcus aureus; 12.5 µM (≈ 39 µg/mL) in [25]; no less than 512 µM in [26]. Besides, the minimum inhibitory concentration (MIC) in assay [27] is no less than 128 µM; in [28] it was no less than 64 µM; in [29] it was 128 µM (≈ 400 µg/mL); in [30], no less than 512 µM.
